Patent US20120142667A1, “PYRIMIDINE DERIVATIVES AS ZAP-70 INHIBITORS” (priority 2009, published 2012)

Columns and labels:
ZAP-70 = target: T1, ZAP-70 (Homo sapiens, UniProt P43403); test: ZAP-70 kinobeads assay; type: binding; conditions: cell lysate
T1 construct: endogenous in cells; host or cells: cell lysate
T1 sequence (P43403 1-619): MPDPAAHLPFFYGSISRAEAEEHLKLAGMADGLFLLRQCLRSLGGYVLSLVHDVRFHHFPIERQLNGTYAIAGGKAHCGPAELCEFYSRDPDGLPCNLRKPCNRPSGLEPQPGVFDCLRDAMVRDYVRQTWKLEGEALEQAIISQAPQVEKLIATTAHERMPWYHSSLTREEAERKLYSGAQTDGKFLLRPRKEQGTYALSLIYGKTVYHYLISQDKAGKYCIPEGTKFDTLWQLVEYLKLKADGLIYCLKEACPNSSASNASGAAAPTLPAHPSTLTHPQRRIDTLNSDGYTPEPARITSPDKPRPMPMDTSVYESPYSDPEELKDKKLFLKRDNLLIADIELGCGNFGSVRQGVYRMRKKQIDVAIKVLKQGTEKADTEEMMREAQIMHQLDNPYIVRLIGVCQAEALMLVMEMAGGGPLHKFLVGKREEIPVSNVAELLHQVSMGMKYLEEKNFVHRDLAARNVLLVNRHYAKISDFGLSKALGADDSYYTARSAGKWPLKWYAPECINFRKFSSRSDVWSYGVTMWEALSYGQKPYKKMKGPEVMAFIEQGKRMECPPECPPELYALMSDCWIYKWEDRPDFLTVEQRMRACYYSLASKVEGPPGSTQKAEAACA
Protocol: The compounds of the present invention as described in the previous examples can be tested in the ZAP-70 kinobeads assay as described (EP-A 1862802 and WO-A 2007/137867). Briefly, test compounds (at various concentrations) and the affinity matrix with the immobilized aminopyrido-pyrimidine ligand 24 are added to cell lysate aliquots and allowed to bind to the proteins in the lysate sample. After the incubation time the beads with captured proteins are separated from the lysate. Bound proteins are then eluted and the presence ZAP-70 is detected and quantified using a specific antibody in a dot blot procedure and the Odyssey infrared detection system.

[1] = tested on: Calcium Ion Release in Cells; test: calcium release assay (measurement of calcium ion release in cells); type: cell-based; conditions: calcium release assay as described in WO-A 2009/080638

| SMILES | IC50 (ZAP-70) | IC50 [1] |
| --- | --- | --- |
| COc1ccc(Nc2nc(Nc3ccncc3OC)ncc2Cl)c(NS(C)(=O)=O)c1 [Example 76, N-(2-(5-chloro-2-(3-methoxypyridin-4-ylamino)pyrimidin-4-ylamino)-5-methoxyphenyl)methanesulfonamide] | 100 to 1000 nM | ≤ 1000 nM |
| COc1ccc(Nc2nc(Nc3cnc(OCCO)cc3C)ncc2Cl)c(NS(C)(=O)=O)c1 [Example 85, N-(2-(5-chloro-2-(6-(2-hydroxyethoxy)-4-methylpyridin-3-ylamino)pyrimidin-4-ylamino)-5-methoxyphenyl)methanesulfonamide] | 100 to 1000 nM | ≤ 1000 nM |
| COc1ccc(Nc2nc(Nc3cc(OCCO)ccc3OC)ncc2F)c(NS(C)(=O)=O)c1 [Example 106, N-(2-(5-fluoro-2-(5-(2-hydroxyethoxy)-2-methoxyphenylamino)pyrimidin-4-ylamino)-5-methoxyphenyl)methanesulfonamide] | 100 to 1000 nM | ≤ 1000 nM |
| COc1ccc(Nc2nc(Nc3cc(CCCO)ccc3OC)ncc2Cl)c(NS(C)(=O)=O)c1 [Example 112, N-(2-(5-chloro-2-(5-(3-hydroxypropyl)-2-methoxyphenylamino)pyrimidin-4-ylamino)-5-methoxyphenyl)methanesulfonamide] | 100 to 1000 nM | ≤ 1000 nM |
| COc1ccc(Nc2nc(Nc3ccncc3F)ncc2Cl)c(NS(C)(=O)=O)c1 [Example 72, N-(2-(5-chloro-2-(3-fluoropyridin-4-ylamino)pyrimidin-4-ylamino)-5-methoxyphenyl)methanesulfonamide] | 100 to 1000 nM | ≤ 1000 nM |
| COc1ccc(Nc2nc(Nc3ccnc(C)c3C)ncc2Cl)c(NS(C)(=O)=O)c1 [Example 80, N-(2-(5-chloro-2-(2,3-dimethylpyridin-4-ylamino)pyrimidin-4-ylamino)-5-methoxyphenyl)methanesulfonamide] | 100 to 1000 nM | ≤ 1000 nM |
| COc1ccc(Nc2nc(Nc3cc(OCCCO)ccc3C)ncc2Cl)c(NS(C)(=O)=O)c1 [Example 87, N-(2-(5-chloro-2-(5-(3-hydroxypropoxy)-2-methylphenylamino)pyrimidin-4-ylamino)-5-methoxyphenyl)methanesulfonamide] | 100 to 1000 nM | ≤ 1000 nM |
| COc1ccc(Nc2nc(Nc3cc(OCC(C)(C)O)ccc3OC)ncc2Cl)c(NS(C)(=O)=O)c1 [Example 104, N-(2-((5-chloro-2-((5-(2-hydroxy-2-methylpropoxy)-2-methoxyphenyl)amino)pyrimidin-4-yl)amino)-5-methoxyphenyl)methanesulfonamide] | 1000 to 10000 nM | – |
| COc1ccc(OC)c(Nc2ncc(Br)c(Nc3ccccc3NS(C)(=O)=O)n2)c1 [Example 7, N-(2-(5-bromo-2-(2,5-dimethoxyphenylamino)pyrimidin-4-ylamino)phenyl)methanesulfonamide] | 100 to 1000 nM | – |
| COc1ccc(Nc2nc(Nc3cc(OC)ccc3OC)ncc2F)c(NS(C)(=O)=O)c1 [Example 27, N-(2-(2-(2,5-dimethoxyphenylamino)-5-fluoropyrimidin-4-ylamino)-5-methoxyphenyl)methanesulfonamide] | 1000 to 10000 nM | – |
| COc1ccc(Nc2nc(Nc3cc(C)ccc3OC)ncc2Cl)c(NS(C)(=O)=O)c1 [Example 56, N-(2-(5-chloro-2-(2-methoxy-5-methylphenylamino)pyrimidin-4-ylamino)-5-methoxyphenyl)methanesulfonamide] | 100 to 1000 nM | – |
| COc1ccc(Nc2nc(Nc3cc(OC)c(C)cc3OC)ncc2Cl)c(NS(C)(=O)=O)c1 [Example 47, N-(2-(5-chloro-2-(2,5-dimethoxy-4-methylphenylamino)pyrimidin-4-ylamino)-5-methoxyphenyl)methanesulfonamide] | 100 to 1000 nM | – |

Other lines, results leading:

| IC50 (ZAP-70) | IC50 [1] | SMILES |
| --- | --- | --- |
| 100 to 1000 nM | ≤ 1000 nM | COc1ccc(Nc2nc(Nc3cccnc3OC)ncc2Cl)c(NS(C)(=O)=O)c1 [Example 79, N-(2-(5-chloro-2-(2-methoxypyridin-3-ylamino)pyrimidin-4-ylamino)-5-methoxyphenyl)methanesulfonamide] |
| ≤ 100 nM | ≤ 1000 nM | COc1ccc(Nc2nc(Nc3cc(OCCO)ccc3C)ncc2Cl)c(NS(C)(=O)=O)c1 [Example 88, N-(2-(5-chloro-2-(5-(2-hydroxyethoxy)-2-methylphenylamino)pyrimidin-4-ylamino)-5-methoxyphenyl)methanesulfonamide] |
| ≤ 100 nM | ≤ 1000 nM | COc1ccc(Nc2nc(Nc3ccc(OCCN)cc3F)ncc2Cl)c(NS(C)(=O)=O)c1 [Example 69, N-(2-(2-(4-(2-aminoethoxy)-2-fluorophenylamino)-5-chloropyrimidin-4-ylamino)-5-methoxyphenyl)methanesulfonamide] |
| ≤ 100 nM | ≤ 1000 nM | COc1ccc(Nc2nc(Nc3ccc(OCCCN4CCCCC4)cc3OC)ncc2Cl)c(NS(C)(=O)=O)c1 [Example 30, N-(2-(5-chloro-2-(2-methoxy-4-(3-(piperidin-1-yl)propoxy)phenylamino)pyrimidin-4-ylamino)-5-methoxyphenyl)methanesulfonamide] |
| ≤ 100 nM | ≤ 1000 nM | COc1ccc(Nc2nc(Nc3ccc(OCC(N)=O)cc3OC)ncc2Cl)c(NS(C)(=O)=O)c1 [Example 89, 2-(4-((5-chloro-4-((4-methoxy-2-(methylsulfonamido)phenyl)amino)pyrimidin-2-yl)amino)-3-methoxyphenoxy)acetamide] |
| ≤ 100 nM | ≤ 1000 nM | COc1ccc(Nc2nc(Nc3ccc(OCCO)cc3C)ncc2Cl)c(NS(C)(=O)=O)c1 [Example 73, N-(2-(5-chloro-2-(4-(2-hydroxyethoxy)-2-methylphenylamino)pyrimidin-4-ylamino)-5-methoxyphenyl)methanesulfonamide] |
| ≤ 100 nM | ≤ 1000 nM | COc1ccc(Nc2nc(Nc3cccc(OCC(C)(C)O)c3C)ncc2Cl)c(NS(C)(=O)=O)c1 [Example 95, N-(2-((5-chloro-2-((3-(2-hydroxy-2-methylpropoxy)-2-methylphenyl)amino)pyrimidin-4-yl)amino)-5-methoxyphenyl)methanesulfonamide] |
| ≤ 100 nM | ≤ 1000 nM | COc1ccc(Nc2nc(Nc3cc(OC)c(OCCO)cc3OC)ncc2Cl)c(NS(C)(=O)=O)c1 [Example 110, N-(2-((5-chloro-2-((4-(2-hydroxyethoxy)-2,5-dimethoxyphenyl)amino)pyrimidin-4-yl)amino)-5-methoxyphenyl)methanesulfonamide] |
| ≤ 100 nM | ≤ 1000 nM | COc1ccc(Nc2nc(Nc3cccc(OCC(=O)N4CCC4)c3C)ncc2Cl)c(NS(C)(=O)=O)c1 [Example 5, N-(2 (2 (3 (2 (azetidin-1-yl)-2-oxoethoxy)-2-methylphenylamino)-5-chloropyrimidin-4-ylamino)-5-methoxyphenyl)methanesulfonamide] |
| ≤ 100 nM | ≤ 1000 nM | COc1ccc(Nc2nc(Nc3ccc(C)nc3C)ncc2Cl)c(NS(C)(=O)=O)c1 [Example 75, N-(2-(5-chloro-2-(2,6-dimethylpyridin-3-ylamino)pyrimidin-4-ylamino)-5-methoxyphenyl)methanesulfonamide] |
| ≤ 100 nM | ≤ 1000 nM | COc1ccc(Nc2nc(Nc3cnc(OC)cc3OC)ncc2Cl)c(NS(C)(=O)=O)c1 [Example 3, N-(2-(5-chloro-2-(4,6-dimethoxypyridin-3-ylamino)pyrimidin-4-ylamino)-5-methoxyphenyl)methanesulfonamide] |
